Here are results for 12 compounds from publication PMC11181328 (Journal of Medicinal Chemistry, 2024).

As usually defined, the Ki is a dissociation constant, usually derived from enzyme kinetics or from competition with a known ligand. The Emax is the greatest response seen or fitted, relative to the assay's reference. Broadly, the EC50 is the concentration giving half of the maximal effect. In general, half-life refers to the time needed for the level to fall by half in the phase considered. Broadly, the microsomal CLint is the capacity of the preparation to metabolise the compound, expressed as a volume cleared per time.

Data set [1] concerns the target T1, MOR (Mus musculus, UniProt P42866). The following applies: percent of DAMGO; MOR functional activity first published; cited from earlier work.
Data set [2] addresses T1, MOR. The data set is described as follows: Competitive radioligand binding assay, MOR. Details: expressed in transfected cells; membrane homogenate.
The target in data set [3] is T2, KOR (Mus musculus, UniProt P33534).
T2 construct: expressed in transfected cells; membrane homogenate
The data set is described as follows: [35S]-GTPγS functional assay, KOR. It counts as biochemical. The following applies: for Emax: percent of U50,488 full agonist control; for EC50: mKOR-CHO membranes. For orientation: Binding of GTPγS marks nucleotide exchange on a G protein.

Data set [4] concerns male Swiss Webster mice. The data set can be described thus: Warm-water tail immersion assay, agonism (single dose screen and potency). Conditions: for antinociception compared to the vehicle group / percent MPE: single dose 10 mg/kg s.c.; for antinociception compared to the vehicle group: 20 min; for ED50: Mus musculus, sc, read-out: potency ED50 [95% CI] mg/kg, s.c., 20 min prior to tail withdrawal latency measurement, male Swiss Webster mice; for percent MPE: withdrawal latency 20 min after administration. It counts as in vivo, mouse.

The target in data set [5] is T3, DOR (Homo sapiens, UniProt P41143).
T3 construct: expressed in transfected cells; membrane homogenate
The data set is described as follows: [35S]-GTPγS functional assay, DOR. It counts as biochemical. The following applies: for EC50: hDOR-CHO membranes; for Emax: percent of SNC80 full agonist control.

Data set [6] concerns the target T1, MOR. The data set is described as follows: [35S]-GTPγS functional assay, MOR. It counts as biochemical. Also on record: expressed in transfected cells; membrane homogenate. Conditions: for EC50: mMOR-CHO membranes; for Emax: read-out: [35S]-GTPγS functional activity MOR Emax (%).
Data set [7] concerns the target T2, KOR. The data set is described as follows: Competitive radioligand binding assay, KOR. Conditions: for selectivity ratio δ/κ / selectivity ratio μ/κ: ratio of Ki values; for radioligand binding affinity (Ki, nM) KOR: [3H]diprenorphine, mKOR-CHO membranes.
Data set [8] addresses T3, DOR. The data set is described as follows: Competitive radioligand binding assay, DOR.
Data set [9] in a line: in vitro. Conditions: human, s9.
Data set [10] in a line: in vitro. The following applies: Sprague-Dawley, rat, s9.
For data set [11], the system named is male Swiss Webster mice. The data set can be described thus: Warm-water tail immersion assay, time course study. It counts as in vivo, mouse. The following applies: morphine 10 mg/kg s.c.
Setting [12] is: [3H]naloxone, mMOR-CHO membranes.
Setting [13] is: [3H]naloxone, mMOR-CHO membranes, read-out: radioligand binding affinity (Ki, nM) MOR.

Counter-ions that a name gives are not always drawn. Like-named read-outs stand apart in the source and are kept apart here.

Turning to `Cl.O=C(CCc1ccoc1)N[C@H]1CC[C@@]2(O)[C@H]3Cc4ccc(O)c5c4[C@@]2(CCN3CC2CC2)[C@H]1O5` [Compound 6, 17-Cyclopropylmethyl-3,14β-dihydroxy-4,5α-epoxy-6α-[3′-(furan-3″-yl)propanamido]morphinan Hydrochloride], the “[35S]-GTPγS functional activity MOR Emax (%)” value in [1] is reported as 27.62 ± 1.96%. In [2] (setting [12]), the “radioligand binding affinity (Ki, nM) MOR” value was “subnanomolar”. Moreover, the Ki in data set [2] (setting [13]) was 0.44 ± 0.1 nM. This compound also showed an Emax in [3] of 80.3 ± 4.73%. In addition, the “antinociception compared to the vehicle group” value in data set [4] is given as “lack of significant antinociceptive effect”.
In the case of `Cl.O=C(CCc1ccoc1)N[C@@H]1CC[C@@]2(O)[C@H]3Cc4ccc(O)c5c4[C@@]2(CCN3CC2CC2)[C@H]1O5` [Compound 8, 17-Cyclopropylmethyl-3,14β-dihydroxy-4,5α-epoxy-6β-[3′-(furan-3″-yl)propanamido]morphinan Hydrochloride], the “[35S]-GTPγS functional activity MOR Emax (%)” value in data set [1] is listed as “above 40%”. Moreover, in data set [2] (setting [12]), the “radioligand binding affinity (Ki, nM) MOR” value is given as “subnanomolar”. Moreover, the inhibition constant Ki in [2] (setting [13]) came to 0.21 ± 0.01 nM. The Emax in data set [3] turned out to be 95.9 ± 1.43%. Besides, in data set [4], the “antinociception compared to the vehicle group” value is “lack of significant antinociceptive effect”.
Take `O=C(CCc1ccco1)N[C@@H]1CC[C@@]2(O)[C@H]3Cc4cccc5c4[C@@]2(CCN3CC2CC2)[C@H]1O5` [Compound 12, 17-Cyclopropylmethyl-4,5α-epoxy-6β-[3′-(furan-2″-yl)propanamido]-14β-hydroxymorphinan Hydrochloride]: the figures for the Ki in [2], in data set [7] and in data set [8] were 27.5 ± 2.9 nM, 23.6 ± 3.79 nM and 800 ± 96.7 nM, respectively. Besides, the EC50 in data set [3] was determined as 368 ± 31.8 nM; in data set [5] it was 2400 ± 200 nM; in [6] it was 104 ± 24.2 nM. The Emax in data set [3] amounted to 86.83 ± 0.69%; in data set [5] it was 71 ± 6.1%; in data set [6], 10.8 ± 1.13%. Besides, the “selectivity ratio δ/κ” value in data set [7] is 34. In addition, the “selectivity ratio μ/κ” value in [7] is on record as 1. Besides, in data set [4], the “antinociception compared to the vehicle group” value is recorded as “lack of significant antinociceptive effect”.
On to `CN(C(=O)CCc1ccco1)[C@H]1CC[C@@]2(O)[C@H]3Cc4ccc(O)c5c4[C@@]2(CCN3CC2CC2)[C@H]1O5` [Compound 13, 17-Cyclopropylmethyl-3,14β-dihydroxy-4,5α-epoxy-6α-[3′-(furan-2″-yl)-N-methylpropanamido]morphinan Hydrochloride], for which the inhibitory constant (Ki) was determined as 0.15 ± 0.01 nM in data set [2], 0.12 ± 0.02 nM in [7] and 0.37 ± 0.07 nM in data set [8]. For the same compound, in data set [2] (setting [12]), the “radioligand binding affinity (Ki, nM) MOR” value is on record as “subnanomolar”. Also, the EC50 amounted to 0.04 ± 0.01 nM in [3], 0.66 ± 0.06 nM in data set [5] and 0.31 ± 0.04 nM in data set [6]. For the same compound, the values for the Emax in [3], in data set [5] and in data set [6] were 101 ± 2.5%, 63.1 ± 2.6% and 15.3 ± 1.08%, respectively. Besides, the “radioligand binding affinity (Ki, nM) KOR” value in data set [7] is “subnanomolar”. Also, the “radioligand binding affinity (Ki, nM) DOR” value in data set [8] ([3H]diprenorphine, hDOR-CHO membranes) is reported as “subnanomolar”. Also, in data set [4], the ED50 was determined as 0.123 mg/kg. In addition, the “percent MPE” value in [4] is on record as no less than 80%.
`CN(C(=O)CCc1ccco1)[C@@H]1CC[C@@]2(O)[C@H]3Cc4ccc(O)c5c4[C@@]2(CCN3CC2CC2)[C@H]1O5` [Compound 15, 17-Cyclopropylmethyl-3,14β-dihydroxy-4,5α-epoxy-6β-[3′-(furan-2″-yl)-N-methylpropanamido]morphinan Hydrochloride]: the Ki is 0.66 ± 0.05 nM in data set [2], 0.32 ± 0.03 nM in [7] and 7.32 ± 1.08 nM in data set [8]. Besides, the “radioligand binding affinity (Ki, nM) MOR” value in data set [2] (setting [12]) was “subnanomolar”. Also, the results for the half-maximal effective concentration (EC50) in data set [3], in data set [5] and in data set [6] were 1.48 ± 0.17 nM, 16.9 ± 2.57 nM and 3.58 ± 0.59 nM, respectively. The Emax in data set [3] came out at 100.7 ± 1%; in [5], 38.6 ± 1.37%; in data set [6], 15.3 ± 0.5%. Moreover, in data set [7], the “radioligand binding affinity (Ki, nM) KOR” value is listed as “subnanomolar”. The ED50 in data set [4] was 0.251 mg/kg. Further, the “percent MPE” value in data set [4] is recorded as no less than 80%.
`CN(C(=O)/C=C/c1ccco1)[C@H]1CC[C@@]2(O)[C@H]3Cc4cccc5c4[C@@]2(CCN3CC2CC2)[C@H]1O5` [Compound 17, 17-Cyclopropylmethyl-4,5α-epoxy-6α-[(2E)-3′-(furan-2″-yl)N-methylprop-2-enamido]-14β-hydroxymorphinan Hydrochloride] returned a Ki in data set [2] of 16.8 ± 1.34 nM. Also, in [3], the EC50 was found to be 5.97 ± 0.42 nM and the Emax was determined as 110 ± 7.9%. The compound also had an EC50 in data set [5] of 440 ± 32.2 nM. In addition, in data set [6], the EC50 was determined as 125 ± 17.1 nM and the Emax was determined as 22.9 ± 2.01%. Moreover, in data set [7], the Ki came to 0.62 ± 0.04 nM; the “radioligand binding affinity (Ki, nM) KOR” value is reported as “subnanomolar”; the “selectivity ratio δ/κ” value turned out to be 110; the “selectivity ratio μ/κ” value worked out at 27. In data set [8], affinity was put at a Ki of 68.4 ± 11.2 nM. In data set [4], the ED50 was 7.8 mg/kg and the “percent MPE” value is listed as no less than 80%.
In the case of `O=C(/C=C/c1ccco1)N[C@H]1CC[C@@]2(O)[C@H]3Cc4cccc5c4[C@@]2(CCN3CC2CC2)[C@H]1O5` [Compound 18, 17-Cyclopropylmethyl-4,5α-epoxy-6α-[(2E)-3′-(furan-2″-yl)prop-2-enamido]-14β-hydroxymorphinan Hydrochloride], the results for the Ki in [2], in [7] and in [8] were 107 ± 8.37 nM, 249 ± 32 nM and 456 ± 26.4 nM, respectively. For the same compound, the EC50 in data set [3] worked out at 1370 ± 89 nM; in data set [5], 1240 ± 147 nM; in data set [6] it was 1510 ± 948 nM. The Emax in data set [3] came out at 85.2 ± 6.52%; in data set [5], 75 ± 5.1%; in data set [6] it was 16 ± 2.91%. In addition, the “selectivity ratio δ/κ” value in data set [7] is 2. Besides, the “antinociception compared to the vehicle group” value in data set [4] is listed as “lack of significant antinociceptive effect”.
With `O=C(/C=C/c1ccco1)N[C@@H]1CC[C@@]2(O)[C@H]3Cc4cccc5c4[C@@]2(CCN3CC2CC2)[C@H]1O5` [Compound 20, 17-Cyclopropylmethyl-4,5α-epoxy-6β-[(2E)-3′-(furan-2″-yl)prop-2-enamido]-14β-hydroxymorphinan Hydrochloride], the values for the Ki in data set [2], in data set [7] and in [8] were 42.4 ± 2.34 nM, 7.03 ± 0.92 nM and 551 ± 64 nM, respectively. Moreover, the EC50 was found to be 178 ± 18.1 nM in [3], 860 ± 148 nM in data set [5] and 1140 ± 984 nM in data set [6]. Also, the figures for the maximal effect (Emax) in data set [3], in [5] and in [6] were 99.7 ± 5.88%, greater than 80% and 12.8 ± 3%, respectively. Moreover, the “selectivity ratio δ/κ” value in [7] is 78. Moreover, the “selectivity ratio μ/κ” value in [7] stood at 6. The “antinociception compared to the vehicle group” value in [4] is given as “lack of significant antinociceptive effect”.
On to `O=C(/C=C/c1ccco1)N[C@H]1CC[C@@]2(O)[C@H]3Cc4ccc(O)c5c4[C@@]2(CCN3CC2CC2)[C@H]1O5` [Compound 22, 17-Cyclopropylmethyl-3,14β-dihydroxy-4,5α-epoxy-6α-[(2E)-3′-(furan-2″-yl)prop-2-enamido]morphinan Hydrochloride], for which the Ki in data set [2] is 0.53 ± 0.06 nM; in [7], 1.08 ± 0.03 nM; in data set [8], 8.75 ± 0.58 nM. Besides, the “radioligand binding affinity (Ki, nM) MOR” value in data set [2] (setting [12]) was “subnanomolar”. In addition, the EC50 was found to be 13.7 ± 2.52 nM in [3], 21.1 ± 1.41 nM in data set [5] and 2.97 ± 0.45 nM in [6]. Further, the ED50 in data set [4] was 4.08 mg/kg. In [4], the “percent MPE” value is no less than 80%.
Regarding `O=C(/C=C/c1ccco1)N[C@@H]1CC[C@@]2(O)[C@H]3Cc4ccc(O)c5c4[C@@]2(CCN3CC2CC2)[C@H]1O5` [Compound 24, 17-Cyclopropylmethyl-3,14β-dihydroxy-4,5α-epoxy-6β-[(2E)-3′-(furan-2″-yl)prop-2-enamido]morphinan Hydrochloride], the Ki in data set [2] amounted to 0.3 ± 0.02 nM; in [7], 0.17 ± 0.02 nM; in data set [8], 12.8 ± 2.37 nM. Also, the “radioligand binding affinity (Ki, nM) MOR” value in data set [2] (setting [12]) is on record as “subnanomolar”. The values for the EC50 in data set [3], in [5] and in data set [6] were 0.54 ± 0.11 nM, 13.1 ± 2.09 nM and 6.76 ± 1.99 nM, respectively. Further, in [7], the “radioligand binding affinity (Ki, nM) KOR” value is given as “subnanomolar”. In addition, in data set [4], the ED50 amounted to 3.32 mg/kg. Further, the “percent MPE” value in data set [4] is recorded as no less than 80%.
Take `O=C(O)Cc1ccccc1Nc1c(Cl)cccc1Cl` [diclofenac, reference compound]: in data set [9], the half-life at 1 h, 1 µM came to 0.308 h and the intrinsic metabolic clearance (microsomal CLint) at 1 h, 1 µM came to 37.4 µL/min/mg. Moreover, in data set [10], the half-life at 1 h, 1 µM worked out at 1.7 h and the microsomal CLint at 1 h, 1 µM amounted to 6.8 µL/min/mg.
On to `CN1CC[C@]23c4c5ccc(O)c4O[C@H]2[C@@H](O)C=C[C@H]3[C@H]1C5` [morphine, (-)-Morphine sulfate pentahydrate, reference compound], for which, in data set [11], the “effects back to baseline” value is reported as 5 h and the “time of significant antinociception postinjection” value was 30 to 60 min. The “percent MPE” value in data set [4] is reported as 100%.
